Measured values published in US20150175530A1, “ANTIBACTERIAL AGENTS” (priority 2012, published 2015).
Values after ≈ are worked out from the molar mass of the structure shown. Read-outs that look alike come from different tables or passages of the source.

Tests used:
[1] = system: bacterial isolates (clinical isolates and ATCC quality control strains); assay: Minimum Inhibitory Concentrations (MICs) by broth microdilution (CLSI susceptibility testing); assay type: cell-based
Method: Bacterial isolates were cultivated from −70° C. frozen stocks by overnight passages at 35° C. in ambient air on Mueller-Hinton agar (Beckton Dickinson, Franklin Lakes, N.J.). Clinical isolates tested were obtained from various geographically diverse hospitals in the US and abroad (Focus Diagnostics, Herndon, Va. and JMI, North Liberty, Iowa). Quality control strains were from the American Type Culture Collection (ATCC; Rockville, Md.).
Minimum Inhibitory Concentrations (MICs) were determined by the broth microdilution method in accordance with the Clinical and Laboratory Standards Institute (CLSI) guidelines. In brief, organism suspensions were adjusted to a 0.5 McFarland standard to yield a final inoculum between 3×10^5 and 7×10^5 colony-forming units (CFU)/mL. Drug dilutions and inocula were made in sterile, cation adjusted Mueller-Hinton Broth (Beckton Dickinson). An inoculum volume of 100 μL was added to wells containing 100 μL of broth with 2-fold serial dilutions of drug. All inoculated microdilution trays were incubated in ambient air at 35° C. for 18-24 h. Following incubation, the lowest concentration of the drug that prevented visible growth (OD600 nm<0.05) was recorded as the MIC. Performance of the assay was monitored by the use of laboratory quality-control strains and levofloxacin, a compound with a defined MIC spectrum, in accordance with CLSI guidelines.

[2] = system: 3 P. aeruginosa strains (APAE001, APAE002, APAE006); assay: Protein binding: fold change in MIC in the presence of 2% HSA and 0.05% AGP, Geomean of 3 strains; assay type: cell-based, Pseudomonas aeruginosa; conditions: MIC in the presence of 2% HSA and 0.05% AGP divided by MIC in the absence; Geomean of 3 P. aeruginosa strains (APAE001, APAE002, APAE006)
Method: The effect of human serum albumin (HSA) and α-1-acid glycoprotein (AGP) from human plasma, which are known to nonspecifically bind to certain antibiotics and thereby reduce their activity (Banéres-Roquet et al. 2009 “Use of a Surface Plasmon Resonance Method to Investigate Antibiotic and Plasma Protein Interactions” Antimicrob. Agents and Chemother. 53(4):1528-1531), was assessed against 3 P. aeruginosa strains (APAE001, APAE002, APAE006). APAE001 is Pseudomonas aeruginosa ATCC27853; APAE002 is a wildtype lab strain of Pseudomonas aeruginosa known as PAM1020 or PA01. APAE006 is a strain of […]/PA01 with efflux deletions: delta mexAB-oprM::CM delta CD-oprJ::Gm delta mexEF-oprN::omega Hg. Lomovskaya, 0 et al. 1999. Use of a Genetic Approach To Evaluate the Consequences of Inhibition of Efflux Pumps in P aeruginosa. Antimicrob. Agents Chemother. 43: 1340-1346.
The standard procedure described in Susceptibility Testing was utilized with one adjustment, specifically 2% HSA and 0.05% AGP were added to the cation adjusted Mueller-Hinton Broth. The MIC for each strain of interest was then assessed in the presence and absence of HSA/AGP. Following MIC determination, the fold change in MIC was determined for each individual strain by dividing the MIC in the presence of HSA/AGP by the MIC in the absence of HSA/AGP. The protein binding Geomean was then calculated using these 3 values.

[3] = APAE1096 is a clinical isolate, broth microdilution, read-out: Minimum Inhibitory Concentrations (MICs) APAE1096
[4] = Pseudomonas aeruginosa, APAE002 is a wildtype lab strain of Pseudomonas aeruginosa known as PAM1020 or PA01, broth microdilution, read-out: Minimum Inhibitory Concentrations (MICs) APAE002
[5] = Pseudomonas aeruginosa, ATCC27853, APAE001 is Pseudomonas aeruginosa ATCC27853, broth microdilution, read-out: Minimum Inhibitory Concentrations (MICs) APAE001
[6] = Pseudomonas aeruginosa, ATCC27853, read-out: Minimum Inhibitory Concentrations (MICs) APAE001
[7] = Pseudomonas aeruginosa, read-out: Minimum Inhibitory Concentrations (MICs) APAE002
[8] = read-out: Minimum Inhibitory Concentrations (MICs) APAE1096

Compound | MIC [1, 3] [µg/mL] | MIC [1, 4] [µg/mL] | MIC [1, 5] [µg/mL] | Protein Binding PB (Geomean of fold change in MIC) [2] | MIC [1, 6] [µg/mL] | MIC [1, 7] [µg/mL] | MIC [1, 8] [µg/mL]
CC(C)(O)[C@H](NC(=O)c1ccc(C#CC#CCO)cc1)C(=O)NO [Compound 4, (S)—N-(3-hydroxy-1-(hydroxyamino)-3-methyl-1-oxobutan-2-yl)-4-(5-hydroxypenta-1,3-diynyl)benzamide] | 1 to 8 (≈ 3.03 to 24.2 µM) | < 1 | < 1 |  |  |  | 
CNC(C)(C)[C@H](NC(=O)c1ccc(C#CC#CCO)cc1)C(=O)NO [Compound 5, (S)—N-(1-(hydroxyamino)-3-methyl-3-(methylamino)-1-oxobutan-2-yl)-4-(5-hydroxypenta-1,3-diynyl)benzamide] | < 1 | < 1 | < 1 | 1.6 |  |  | 
CC(C)(NCCO)[C@H](NC(=O)c1ccc(C#CC#CCO)cc1)C(=O)NO [Compound 6, (S)—N-(1-(hydroxyamino)-3-(2-hydroxyethylamino)-3-methyl-1-oxobutan-2-yl)-4-(5-hydroxypenta-1,3-diynyl)benzamide] | 1 to 8 (≈ 2.68 to 21.4 µM) | < 1 | < 1 | 2.6 |  |  | 
CC(C)(N)[C@H](NC(=O)c1ccc(C#CC#CCCO)cc1)C(=O)NO [Compound 7, (S)—N-(3-amino-1-(hydroxyamino)-3-methyl-1-oxobutan-2-yl)-4-(6-hydroxyhexa-1,3-diynyl)benzamide] | < 1 | < 1 | < 1 | 2.5 |  |  | 
CC(C)(N)[C@H](NC(=O)c1ccc(C#CCCO)cc1)C(=O)NO [Compound 8, (S)—N-(3-amino-1-(hydroxyamino)-3-methyl-1-oxobutan-2-yl)-4-(4-hydroxybut-1-ynyl)benzamide] | 8 to 16 (≈ 25.1 to 50.1 µM) | 1 to 8 (≈ 3.13 to 25.1 µM) | 1 to 8 (≈ 3.13 to 25.1 µM) | 0.9 |  |  | 
CNC(C)(C)[C@H](NC(=O)c1ccc(C#CC#CCCO)cc1)C(=O)NO [Compound 9, (S)—N-(1-(hydroxyamino)-3-methyl-3-(methylamino)-1-oxobutan-2-yl)-4-(6-hydroxyhexa-1,3-diynyl)benzamide] |  |  |  | 1.5 | < 1 | < 1 | < 1
CCNC(C)(C)[C@H](NC(=O)c1ccc(C#CC#CCCO)cc1)C(=O)NO [Compound 10, (S)—N-(3-(ethylamino)-1-(hydroxyamino)-3-methyl-1-oxobutan-2-yl)-4-(6-hydroxyhexa-1,3-diynyl)benzamide] |  |  |  | 2.2 | < 1 | < 1 | < 1
CC(C)(NCCO)[C@H](NC(=O)c1ccc(C#CC#CCCO)cc1)C(=O)NO [Compound 11, (S)—N-(1-(hydroxyamino)-3-(2-hydroxyethylamino)-3-methyl-1-oxobutan-2-yl)-4-(6-hydroxyhexa-1,3-diynyl)benzamide] | 1 to 8 (≈ 2.58 to 20.6 µM) | < 1 | < 1 | 1.5 |  |  | 
Cc1cc(CNC(C)(C)[C@H](NC(=O)c2ccc(C#CC#CCCO)cc2)C(=O)NO)no1 [Compound 12, (S)—N-(1-(hydroxyamino)-3-methyl-3-((5-methylisoxazol-3-yl)methylamino)-1-oxobutan-2-yl)-4-(6-hydroxyhexa-1,3-diynyl)benzamide] | 8 to 16 (≈ 18.2 to 36.5 µM) | 1 to 8 (≈ 2.28 to 18.2 µM) | 1 to 8 (≈ 2.28 to 18.2 µM) | 2.9 |  |  | 
CC(C)(N)[C@H](NC(=O)c1ccc(C#CC#CC(O)CCO)cc1)C(=O)NO (stereo partly drawn) [Compound 46, N—((S)-3-amino-1-(hydroxyamino)-3-methyl-1-oxobutan-2-yl)-4-(5,7-dihydroxyhepta-1,3-diyn-1-yl)benzamide] | 1 to 8 (≈ 2.68 to 21.4 µM) | < 1 | < 1 |  |  |  | 
CC(C)(O)[C@H](NC(=O)c1ccc(C#CC#CC(O)CO)cc1)C(=O)NO (stereo partly drawn) [Compound 60, 4-(5,6-dihydroxyhexa-1,3-diyn-1-yl)-N—((S)-3-hydroxy-1-(hydroxyamino)-3-methyl-1-oxobutan-2-yl)benzamide] |  |  | 1 to 8 (≈ 2.77 to 22.2 µM) |  |  |  | 
